Laboratory results from patent US20170137458A1, “OXYSTEROLS FOR USE IN THE TREATMENT AND PREVENTION OF DISEASES CAUSED BY VIRUSES” (priority 2014, published 2017).
Where two headings read alike, the source gives them in different places.

Experiments:
PsV of HPV-16 = assay: microbe, parasite or virus in culture; format: cell-based, human papillomavirus
[1] = tested on: human rotavirus (strain Wa); assay: Rotavirus yield reduction assay; format: cell-based
Protocol: The cells were treated at 37° C. with 25-, 27-, 7α-, 7β-hydroxycholesterol or 7-ketocholesterol at 5.6 μM for 20 hours, then washed with medium and infected with the human rotavirus at an MOI of 0.02 (strain Wa) activated with trypsin. After one hour, the cells were washed and fresh medium was added supplemented with 0.5 μg/ml of porcine trypsin. […] The assay was performed in triplicate and the results were confirmed on Caco2 cells. In an alternative protocol, the MA104 cells were treated with oxysterols—at the concentration indicated above—after the viral inoculum. The one-way variance analysis (ANOVA), followed by the Bonferroni test, was used to evaluate the statistical significance of the virus titre differences between the treated and non-treated samples. The significance was fixed at 95%.
The results of the pre-treatment assays are illustrated in FIGS. 5 (MA104 cells) and 6 (Caco2 cells).

TLR4 = conditions: cited from earlier work
rotavirus = assay: Rotavirus cell entry kinetics; format: cell-based; conditions: MA104 cells; for entry of the rotavirus into the cells (infective events): 1.9 μM for 20 hours, MOI 0.02
Protocol: To measure the entry speed of the rotavirus into the cells, confluent monolayers of MA104 cells (cultivated in plates with 96 wells) were treated with 25OHC, 27OHC or 7κC at 1.9 μM at 37° C.; after 20 hours, the cells were washed extensively with cold medium and left to cool on ice. […] The non-bound viruses were then eliminated by washing, medium was added at 37° C., and the plates were incubated at 37° C. in a humidified atmosphere. At fixed times (i.e. 0, 15, 30, 45, 60, 75 and 90 minutes after the virus-cell adhesion), the medium was extracted from the wells and the viral particles still present on the surface of the cells were eliminated by means of two rapid washing operations with EGTA 3 mM in PBS, followed by incubation in warm medium. After reaching the last time point (90 minutes from the virus-cell adhesion), the plates with 96 wells were placed in an incubator (37° C., 5% CO2), and the infection was left to proceed for a further 16 hours. The cells were then fixed and coloured as described above. The quantity of viral particles that entered the cells at each time point was compared with the quantity of virus that entered when no washing with EGTA was performed (100% entry). The ANOVA, followed by the Bonferroni test, was used to evaluate the statistical significance of the differences between the treated and non-treated samples. The significance was fixed at the level of 95%.
As a control experiment, the same treatment and infection protocol was performed on MA104 cells, cultivated in a plate with 6 wells. In this experiment, after reaching the last time point of the entry measurement (90 minutes), the cells were lysed, the proteins extracted were denatured by boiling for 5 minutes, then separated by electrophoresis on sodium dodecylsulfate gel with 12% polyacrylamide (SDS-12%PAGE) and transferred to a polyvinylidene difluoride (PVDF) membrane. The protein of the intermediate capsid VP6 was detected using the murine monoclonal antibody 2B4 (mab0036-P, CovalAb) at a dilution 1:750, followed by secondary antibody IgG-HRP (Santa Cruz Biotechnology Inc.). The actin was detected using the anti-actin murine monoclonal antibody MAB1501R (Millipore), followed by antibody IgG-HRP (Santa Cruz Biotechnology Inc.). The density of the bands was compared using the ImageJ software, and the intensity of the actin bands was used to normalize the values. The ANOVA, followed by the Bonferroni test, was used to evaluate the statistical significance of the differences between the treated and the non-treated samples. The significance was fixed at the level of 95%. The results are reported in FIG. 11 and are expressed as a percentage, comparing treated cells with cells incubated with culture medium.

LXR = conditions: cited from earlier work
human rotavirus Wa [2] = assay: Infectivity assay for rotavirus, MA104 cells, strain Wa
Protocol: (§2) The strains of human rotavirus Wa (ATCC® VR-2018), WI61 (ATCC® VR-2551), HRV 408 (ATCC® VR-2273), HRV 248 (ATCC® VR-2274) and DS-1 (ATCC® VR-2550) were acquired from the American Tissue Culture Collection (ATCC); the viruses were activated with 5 μg/ml porcine pancreatic trypsin of type IX (Sigma, St. Louis, Mo.) for 30 minutes at 37° C. and propagated in MA104 cells using MEM containing 0.5 μg of trypsin per ml as described previously (27).
(§3) The antiviral effectiveness of the oxysterols of the invention was determined by means of infectivity inhibition assay. The assays were performed with confluent monolayers of MA104 cells seeded in plates with 96 wells, as described previously (28). […] The control samples were prepared by treating the cells with culture medium with the addition of equal volumes of ethanol. The cells were then washed with medium, and the rotavirus infection was performed at a multiplicity of infection (MOI) of 0.02. After the infection, the cells were washed with medium and incubated at 37° C. in an incubator humidified at 5% (vol/vol) CO2-95% (vol/vol) of air. After 16 hours, the infected cells were fixed with a cold acetone-methanol mixture (50:50), and the virus titres were determined by means of indirect immunocytochemistry. The inhibition of the virus infectivity was expressed as a percentage comparing the mean number of infective events in the treated and non-treated samples±the standard deviations. Where possible, the values of the oxysterol concentrations able to determine 50% or 90% of the antiviral effect (EC50 and EC90 respectively) were calculated by means of regression analysis using the dose-response curves generated by the experimental data, with the use of PRISM 5.00 (GraphPad Software, San Diego, Calif., USA).

human rhinovirus 1A [3] = assay: Infectivity assay with rhinovirus (plaque count, HeLa cells)
Protocol: The human rhinovirus 1A (ATCC® VR-1559) was acquired from ATCC. The virus was propagated in HeLa cells, at 33° C. with 5% of CO2. When the cytopathic effect (CPE) had fully developed, cells and supernatants were collected, frozen and thawed three times, clarified and divided into aliquots. The viruses were kept at −70° C. The rhinovirus titres were determined by means of the standard plaque assay. In short, the HeLa cells were seeded 2 days prior to the infection in plates with 96 wells, reaching 60%-70% confluence at the time of the infection. The viral suspension was serially diluted in DMEM supplemented with 2% fetal bovine serum and inoculated; the infected wells were incubated at 33° C. for 1 hour, allowing the viruses to adhere and enter the cells. The cells were subsequently washed with medium and covered with a 1:1 mixture of 1.6% SeaPlaque agarose (BioWhittaker Molecular Applications) and DMEM 2X [26.76 g DMEM (Gibco BRL), 20 ml of L-glutamine (Gibco BRL), 4.4 g of sodium bicarbonate (Sigma, St. Louis, Mo.), FBS 40 ml (Sigma, St. Louis, Mo.) and 1000 ml of water]. The plates were incubated at 33° C. for 3 days. At the end of the incubation, the plates were fixed with 7.5% formaldehyde (Fluka) and coloured with crystal violet (Sigma, St. Louis, Mo.). The number of plaques formed was then counted; the virus titres were expressed in terms of plaque-forming units per ml (PFU/ml).
The HeLa cells, kept in DMEM supplemented with 10% FBS and 1% Zell Shield, were seeded (at 8×10^4 cells/well) in plates with 24 wells. The medium was removed and the cells were infected with 200 microlitres/well containing approximately 30 PFU of a stock of human rhinovirus 1A. The infected cells were incubated at 33° C. for 1 h, allowing the virus to adhere and enter the cells. […] The plates were incubated at 33° C. for 5 days. After the incubation, the plates were fixed with formaldehyde at 7.5% (Fluka), coloured with crystal violet (Sigma, St. Louis, Mo.) and the number of plaques formed was counted. The oxysterol concentration values able to determine 50% or 90% of the antiviral effect (EC50 and EC90 respectively) were calculated by means of regression analysis using the dose-response curves generated by the experimental data, using PRISM 5.00 (GraphPad Software, San Diego, Calif., USA).

human rotavirus WI61 = assay: Infectivity assay for rotavirus, MA104 cells, strain WI61
Protocol: as §2, §3

TLR3 = assay: Quantitative real time RT-PCR of TLR-3 in Caco2 cells; format: cell-based, human; conditions: CaCo2 intestinal cells, 1.9 μM, 30 minutes to 6 hours
Protocol: The Caco2 cells were cultivated in DMEM medium containing 10% serum and seeded in 25 cm^2 flasks (8 million confluence cells). The next day the cells were treated, in DMEM medium containing 2% serum, with 1.9 μM 25OHC or 27OHC (dissolved in ethanol) for 30 minutes, 1, 2, 3, 4, 5 or 6 hours. Extraction of the total RNA was performed using the TRIzol Reagent (Applied Biosystems, Monza, Italy) and the quantity and purity (A260/A280 ratio) of the extracted RNA were spectrophotometrically measured. Subsequently, 2 μg of RNA were retrotranscribed using the High-Capacity cDNA Reverse Transcription Kit (Applied Biosystems). Quantitative RT-PCR was performed with 30 ng of cDNA using the “TaqMan Gene Expression Assay kits” for TLR-3 and β-actin, TaqMan Fast Universal PCR Master Mix, and 7500 Fast Real-Time PCR System (Applied Biosystems). For each gene considered, the threshold cycle (Ct) was determined and the results were normalized using β-actin as a reference gene. The relative quantification was performed using a mathematical method previously published (29). In FIGS. 1a-1b, the results are reported as increment of the genic expression (Fold change, Fc) of the treated samples with respect to the controls.

human rotavirus Wa [4] = assay: Infectivity assay for rotavirus repeated on Caco2 cells, strain Wa; format: cell-based; conditions: Caco-2
Excerpt: The results of the antiviral assays performed treating with 25OHC and 27OHC were confirmed repeating the infectivity assays on Caco2 cells.

human rotavirus HRV 248 = assay: Infectivity assay for rotavirus, MA104 cells, strain HRV 248
Protocol: as §2, §3

human rotavirus [5] = assay: Target identification by siRNA sensitization (TISS), human rotavirus, Caco2 cells; conditions: oxysterol at its EC50
Protocol: This mechanism of action vis-à-vis the rotavirus was therefore investigated, performing a target identification assay by means of sensitization with short interfering RNA (siRNA). The Caco2 cells (for the experiments with human rotavirus) or the HeLa cells (for the experiments with human papillomavirus) were seeded in a plate with 24 wells; during seeding, the cells were transfected with siRNA specific for OSBP and VAPA (at a concentration of 20 nM). […] After one day, the medium was removed and the cells inoculated with the respective viruses in the same time, temperature and MOI conditions described in the protocols of the infectivity or neutralization assays. The number of infected cells was evaluated as described in the preceding paragraphs.

human rotavirus DS-1 = assay: Infectivity assay for rotavirus, MA104 cells, strain DS-1
Protocol: as §2, §3

human rhinovirus 1A [6] = assay: Rhinovirus yield reduction assay; conditions: HeLa cells, 5.6 μM after infection, collected 5 days after the infection
Protocol: Each well was inoculated with 200 μl of a stock of human rhinovirus 1A containing approximately 30 PFU per well and incubated for 1 hour. […] The infected cells and the supernatants were collected 5 days after the infection (when a complete CPE was visible), and titred by means of the standard plaque method, as described above.

HPV PsV (protein L1) = assay: Assay for adhesion of the papillomavirus to the cell surface: Western blot analysis; format: cell-based, human papillomavirus; conditions: Hela cells treated 16 hours, PsV 4 hours at 4° C.
Excerpt: L1 was detected using the murine monoclonal antibody (Ab30908, Abcam, Cambridge, UK) at a dilution of 1:2000, followed by secondary antibody IgG-HRP (Santa Cruz Biotechnology Inc.). The actin was detected using an anti-actin murine monoclonal antibody (MAB1501R, Millipore), followed by secondary antibody IgG-HRP (Santa Cruz Biotechnology Inc.).

human rotavirus HRV 408 = assay: Infectivity assay for rotavirus, MA104 cells, strain HRV 408
Protocol: as §2, §3

human rotavirus [7] = assay: Antiviral assay with U18666A, rotavirus, MA104 cells; format: cell-based; conditions: MA104 cells treated 20 hours, 0.07 to 50 μM
Protocol: (§1) According to the hypothesis formulated previously, the oxysterols determine an accumulation of the intracellular cholesterol at endosomal level, inhibiting entry of the rotavirus. […] U18666A is an amphipathic steroid, widely used to block the intracellular transport of cholesterol, with consequent accumulation of the same at the level of the endosome membranes (31). In short, antiviral assays were performed treating the MA104 cells (for the rotavirus) or HeLa cells (for the papillomavirus) for 20 hours with scalar concentrations of U18666A (0.07 to 50 μM) and then infecting for one hour with the respective viruses. The effect of the treatment on the infectivity of the two viral models was evaluated as described previously. […] The experiment described therefore constitutes solid proof of the principle of the mechanism of action proposed.

human papillomavirus = assay: Antiviral assay with U18666A, papillomavirus, HeLa cells; format: cell-based; conditions: HeLa cells treated 20 hours
Protocol: as §1

[8] = MA104 cells, post-infection treatment 5.6 μM
[9] = MA104 cells, pre-treatment 5.6 μM for 20 hours, collected 48 hours after infection
[10] = Caco2 cells, pre-treatment 5.6 μM for 20 hours, collected 48 hours after infection
[11] = pre-treatment assay, 20 hours prior to the infection

## CC(C)CCC[C@@H](C)[C@H]1CC[C@H]2[C@@H]3[C@H](O)C=C4C[C@@H](O)CC[C@]4(C)[C@H]3CC[C@]12C [7αOHC, 7alpha-hydroxycholesterol]
PsV of HPV-16
  inhibition of the infectivity of HPV: not able to inhibit the infectivity of HPV
[1]; [8]
  production of virus progenies: antiviral activity

## CC(C)CCC[C@@H](C)[C@H]1CC[C@H]2[C@@H]3[C@@H](O)C=C4C[C@@H](O)CC[C@]4(C)[C@H]3CC[C@]12C [7βOHC, 7β-hydroxycholesterol]
[1]; [8]
  production of virus progenies: antiviral activity
[1]; [9]
  production of virus progenies: significant (P<0.05) antiviral activity
TLR4; SH-SY5Y neuroblastoma cells
  induction of TLR4: active in inducing TLR4

## CC(C)CCC[C@@H](C)[C@H]1CC[C@H]2[C@@H]3C(=O)C=C4C[C@@H](O)CC[C@]4(C)[C@H]3CC[C@]12C [7κC, 7-ketocholesterol]
rotavirus
  entry of the rotavirus into the cells (infective events): does not cause a significant reduction (p>0.05) in the number of infective events
[1]; [10]
  production of virus progenies: significantly limit (p<0.05) the production of virus progenies
[1]; [8]
  production of virus progenies: antiviral activity
[1]; [9]
  production of virus progenies: significantly limit (p<0.05) the production of virus progenies
LXR
  LXR ligand activity: no ligand activity

## CC(C)C(O)CC[C@@H](C)[C@H]1CC[C@H]2[C@@H]3CC=C4C[C@@H](O)CC[C@]4(C)[C@H]3CC[C@]12C (stereo partly shown) [24OHC, 24-hydroxycholesterol]
PsV of HPV-16; Human papillomavirus, HeLa
  EC50: 4.38 µM
Human rotavirus Wa [2]
  EC50: 0.39 µM
  EC90: 1.6 µM
Human rhinovirus 1A [3]; [11]
  EC50: 0.77 µM
  EC90: 3.1 µM

## C[C@@H](CO)CCC[C@@H](C)[C@H]1CC[C@H]2[C@@H]3CC=C4C[C@@H](O)CC[C@]4(C)[C@H]3CC[C@]12C [27OHC, 27-hydroxycholesterol]
PsV of HPV-16; C33A cells, treated 16 hours before PsV, read-out: EC50
  EC50: 6.87 µM
PsV of HPV-16; Human papillomavirus, HeLa
  EC50: 9.33 µM
PsV of HPV-16; Human papillomavirus, SiHa
  EC50: 28.9 µM
Human rotavirus WI61
  EC50: 0.19 µM
  EC90: 0.74 µM
TLR3
  TLR3 expression: marked hyperexpression of TLR3
rotavirus
  entry of the rotavirus into the cells (infective events): able to limit the entry of the viral particles into the cells, shows a lesser effectiveness
rotavirus; 90 minutes after virus-cell adhesion
  viral antigen VP6 within the cells (Western blot): significantly (p<0.05) lower quantity than the non-treated control
Human rotavirus Wa [4]
  EC50: 0.44 µM
  EC90: 2.5 µM
Human rotavirus Wa [2]
  EC50: 0.26 µM
  EC90: 1.73 µM
[1]; [10]
  production of virus progenies: significantly limit (p<0.05) the production of virus progenies
[1]; [8]
  production of virus progenies: confirm the in vitro effectiveness
[1]; [9]
  production of virus progenies: significantly limit (p<0.05) the production of virus progenies
Human rotavirus HRV 248
  EC50: 0.23 µM
  EC90: 3.84 µM
Human rhinovirus 1A [3]; post-infection treatment assay
  EC50: 0.48 µM
  EC90: 1.27 µM
Human rhinovirus 1A [3]; [11]
  EC50: 0.62 µM
  EC90: 2.17 µM
Human rotavirus [5]; OSBP siRNA 20 nM
  antiviral activity in cells with OSBP silenced: higher
Human rotavirus [5]; VAPA siRNA 20 nM
  antiviral activity in cells with VAP-A silenced: higher
Human rotavirus DS-1
  EC50: 0.72 µM
  EC90: 5.85 µM
LXR
  LXR ligand activity: optimal ligands of LXR
Human rhinovirus 1A [6]
  production of viral progenies: totally inhibit the production of viral progenies
TLR4; SH-SY5Y neuroblastoma cells
  induction of TLR4: active in inducing TLR4
TLR4; macrophage cell lines
  induction of TLR4: active in inducing TLR4
HPV PsV (protein L1)
  adhesion of the PsV to the cell surface (L1 Western blot): not able to inhibit adhesion of the PsV to the cell surface
Human rotavirus HRV 408
  EC50: 0.4 µM
  EC90: 4.56 µM

## CCN(CC)CCO[C@H]1CC[C@@]2(C)C(=CC[C@@H]3[C@@H]2CC[C@]2(C)C(=O)CC[C@@H]32)C1 [U18666A]
Human rotavirus [7]
  inhibition of rotavirus infectivity: antiviral activity is so high that calculation of the EC50 is not possible
Human papillomavirus
  EC50: 1.74 µM
